Laboratory results reported in patent publication US12275731B2, “Azaindole inhibitors of wild-type and mutant forms of LRRK2” (DANA-FARBER CANCER INSTITUTE, INC., priority 2018, dated 2025).

Experiments:
Test in all cases: KinomeScan profiling
Type in all cases: binding
[1] = biological target: T1, NEK3 (Homo sapiens, UniProt P51956); conditions: NEK3, 1 μM; read-out: % control
T1 sequence (P51956 1-506): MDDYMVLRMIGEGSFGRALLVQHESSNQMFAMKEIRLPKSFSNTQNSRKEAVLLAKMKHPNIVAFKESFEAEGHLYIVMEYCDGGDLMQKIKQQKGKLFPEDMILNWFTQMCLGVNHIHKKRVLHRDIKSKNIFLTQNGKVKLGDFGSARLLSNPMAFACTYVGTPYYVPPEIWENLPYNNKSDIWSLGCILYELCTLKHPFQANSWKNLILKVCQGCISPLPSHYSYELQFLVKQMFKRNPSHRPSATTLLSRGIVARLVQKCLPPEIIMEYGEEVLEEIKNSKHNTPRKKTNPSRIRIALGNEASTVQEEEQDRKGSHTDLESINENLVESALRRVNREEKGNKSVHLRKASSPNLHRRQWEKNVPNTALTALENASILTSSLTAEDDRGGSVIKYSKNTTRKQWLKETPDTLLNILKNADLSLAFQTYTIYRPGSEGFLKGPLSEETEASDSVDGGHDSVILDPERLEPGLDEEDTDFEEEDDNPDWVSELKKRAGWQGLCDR
Description: (§1) The kinase selectivity of inventive compounds 77, 96 and 101 was evaluated by KinomeScan®. KinomeScan® analysis was performed against a near comprehensive panel of 468 kinases. The control percentage (% control) for inventive compounds at 1 μM in DMSO was determined by Equation 1: % control=(inventive compound−positive control)/(negative control−positive control)×100%, Equation 1
(§2) wherein the positive control is a compound with a % control value of 0% relative light units (RLU), and the negative control (i.e., DMSO) has % control value of 100% RLU. The enzyme selectivity in the present invention is defined as follows: inventive compounds are considered active for an enzyme when the observed % control is less than 35% (<35%).

[2] = biological target: T2, ABL2 (Homo sapiens, UniProt P42684); conditions: ABL2, 1 μM; read-out: % control
T2 construct: purchased KinomeScan®
T2 sequence (P42684 whole entry): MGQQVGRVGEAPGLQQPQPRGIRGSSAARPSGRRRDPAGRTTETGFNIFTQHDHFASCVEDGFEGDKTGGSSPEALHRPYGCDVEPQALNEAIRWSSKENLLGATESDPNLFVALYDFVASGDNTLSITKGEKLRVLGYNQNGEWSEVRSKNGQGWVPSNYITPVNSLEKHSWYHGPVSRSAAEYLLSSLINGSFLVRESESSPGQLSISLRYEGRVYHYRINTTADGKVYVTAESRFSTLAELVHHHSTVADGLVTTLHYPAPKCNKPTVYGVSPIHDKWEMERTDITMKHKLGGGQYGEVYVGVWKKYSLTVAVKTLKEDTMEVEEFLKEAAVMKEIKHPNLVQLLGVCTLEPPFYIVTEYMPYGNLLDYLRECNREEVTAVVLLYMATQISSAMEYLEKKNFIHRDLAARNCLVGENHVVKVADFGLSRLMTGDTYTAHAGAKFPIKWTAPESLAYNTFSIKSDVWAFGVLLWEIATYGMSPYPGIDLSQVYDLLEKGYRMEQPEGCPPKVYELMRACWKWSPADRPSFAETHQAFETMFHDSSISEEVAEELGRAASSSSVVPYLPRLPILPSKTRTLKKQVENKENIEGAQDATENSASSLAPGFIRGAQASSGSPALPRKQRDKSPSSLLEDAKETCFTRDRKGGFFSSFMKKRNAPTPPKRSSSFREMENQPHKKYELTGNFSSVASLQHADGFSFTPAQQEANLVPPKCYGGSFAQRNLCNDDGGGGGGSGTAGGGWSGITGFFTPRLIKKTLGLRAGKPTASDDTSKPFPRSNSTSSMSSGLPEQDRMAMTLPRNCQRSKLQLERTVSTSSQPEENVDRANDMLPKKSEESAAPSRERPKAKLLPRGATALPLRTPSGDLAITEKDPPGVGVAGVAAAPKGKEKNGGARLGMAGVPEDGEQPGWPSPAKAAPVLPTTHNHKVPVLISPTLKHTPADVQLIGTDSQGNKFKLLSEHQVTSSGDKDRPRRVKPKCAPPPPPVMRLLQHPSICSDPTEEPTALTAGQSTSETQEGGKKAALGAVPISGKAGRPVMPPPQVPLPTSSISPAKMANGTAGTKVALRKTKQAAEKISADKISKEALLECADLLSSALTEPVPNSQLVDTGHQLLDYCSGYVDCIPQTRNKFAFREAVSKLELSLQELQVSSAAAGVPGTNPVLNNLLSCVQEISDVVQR
Description: as §1, §2

[3] = biological target: CDK2 (Homo sapiens, UniProt P24941); conditions: CDK2, 1 μM; read-out: % control
Description: as §1, §2

[4] = biological target: T3, PIK3C2G (Homo sapiens, UniProt O75747); conditions: read-out: % control
T3 construct: purchased KinomeScan® (panel service)
T3 sequence (O75747 1-1486): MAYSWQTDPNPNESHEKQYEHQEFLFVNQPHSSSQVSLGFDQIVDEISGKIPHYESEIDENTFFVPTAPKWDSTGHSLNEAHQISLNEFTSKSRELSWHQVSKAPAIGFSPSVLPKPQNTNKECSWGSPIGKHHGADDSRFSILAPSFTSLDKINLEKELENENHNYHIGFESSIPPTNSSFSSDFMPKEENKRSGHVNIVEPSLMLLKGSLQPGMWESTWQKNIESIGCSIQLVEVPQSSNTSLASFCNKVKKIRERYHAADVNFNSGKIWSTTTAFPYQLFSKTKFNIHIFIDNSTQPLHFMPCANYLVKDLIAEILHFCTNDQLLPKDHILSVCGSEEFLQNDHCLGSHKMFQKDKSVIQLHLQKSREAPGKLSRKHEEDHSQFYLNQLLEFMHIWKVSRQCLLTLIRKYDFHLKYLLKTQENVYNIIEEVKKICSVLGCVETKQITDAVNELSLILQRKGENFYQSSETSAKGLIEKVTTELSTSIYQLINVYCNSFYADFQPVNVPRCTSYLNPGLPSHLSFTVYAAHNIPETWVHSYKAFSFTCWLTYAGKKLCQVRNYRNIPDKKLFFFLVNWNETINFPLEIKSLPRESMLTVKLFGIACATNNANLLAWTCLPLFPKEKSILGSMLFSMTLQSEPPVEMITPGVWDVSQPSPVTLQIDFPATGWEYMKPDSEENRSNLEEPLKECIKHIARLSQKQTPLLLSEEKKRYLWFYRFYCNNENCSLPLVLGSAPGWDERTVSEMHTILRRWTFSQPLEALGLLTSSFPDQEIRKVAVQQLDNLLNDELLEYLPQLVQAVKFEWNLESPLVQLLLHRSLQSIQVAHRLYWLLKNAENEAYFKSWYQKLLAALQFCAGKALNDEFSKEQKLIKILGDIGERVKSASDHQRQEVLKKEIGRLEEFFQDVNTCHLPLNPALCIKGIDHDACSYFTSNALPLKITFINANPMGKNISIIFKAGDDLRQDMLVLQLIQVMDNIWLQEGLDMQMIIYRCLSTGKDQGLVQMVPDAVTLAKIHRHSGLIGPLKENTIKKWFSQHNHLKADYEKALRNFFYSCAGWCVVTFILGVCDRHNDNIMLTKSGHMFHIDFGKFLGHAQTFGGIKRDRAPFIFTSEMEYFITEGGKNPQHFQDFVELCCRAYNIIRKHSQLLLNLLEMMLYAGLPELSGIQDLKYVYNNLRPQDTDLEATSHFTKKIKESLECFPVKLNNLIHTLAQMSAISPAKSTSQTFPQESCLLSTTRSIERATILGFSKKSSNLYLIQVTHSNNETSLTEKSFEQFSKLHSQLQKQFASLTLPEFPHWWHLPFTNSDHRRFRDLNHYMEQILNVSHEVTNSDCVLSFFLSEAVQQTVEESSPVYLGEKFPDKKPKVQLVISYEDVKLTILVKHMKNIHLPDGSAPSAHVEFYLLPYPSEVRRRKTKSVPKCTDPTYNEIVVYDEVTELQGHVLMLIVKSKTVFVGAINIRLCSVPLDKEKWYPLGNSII
Description: as §1, §2

[5] = biological target: T4, MKK7 (Homo sapiens, UniProt O14733); conditions: MKK7, 1 μM; read-out: % control
T4 sequence (O14733 1-419): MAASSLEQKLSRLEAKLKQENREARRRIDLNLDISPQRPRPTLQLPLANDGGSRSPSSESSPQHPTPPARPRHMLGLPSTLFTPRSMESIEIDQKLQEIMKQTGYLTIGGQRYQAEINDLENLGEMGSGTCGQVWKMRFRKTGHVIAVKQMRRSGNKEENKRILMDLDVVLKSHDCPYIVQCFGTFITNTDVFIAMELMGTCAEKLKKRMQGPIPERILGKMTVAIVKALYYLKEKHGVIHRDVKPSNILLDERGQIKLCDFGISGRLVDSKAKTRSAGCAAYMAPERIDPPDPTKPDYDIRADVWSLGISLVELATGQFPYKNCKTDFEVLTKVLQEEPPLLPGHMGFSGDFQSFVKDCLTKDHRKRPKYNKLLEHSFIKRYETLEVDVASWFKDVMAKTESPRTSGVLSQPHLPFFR
Description: as §1, §2

| Compound | remaining binding at 1 µM [1] | remaining binding at 1 µM [2] | remaining binding at 1 µM [3] | remaining binding at 1 µM [4] | remaining binding at 1 µM [5] |
| --- | --- | --- | --- | --- | --- |
| CNc1c(-c2cnn([C@H]3CCN(C(C)=O)C[C@@H]3F)c2)cnc2[nH]cc(Cl)c12 [Compound 77, 1-((3S,4S)-4-(4-(3-chloro-4-(methylamino)-1H-pyrrolo[2,3-b]pyridin-5-yl)-1H-pyrazol-1-yl)-3-fluoropiperidin-1-yl)ethan-1-one] | 68% | 92% | 100% | 100% | 67% |
| CNc1c(-c2ccc(C(=O)N3CCC(N4CCOCC4)CC3)cc2)cnc2[nH]cc(Cl)c12 [Compound 96, (4-(3-chloro-4-(methylamino)-1H-pyrrolo[2,3-b]pyridin-5-yl)phenyl)(4-morpholinopiperidin-1-yl)methanone] | 82% | 100% | 100% | 94% | 79% |
| O=C(c1ccc(-c2cnc3[nH]cc(Cl)c3c2NC2CCCC2)cc1)N1CCC(N2CCOCC2)CC1 [Compound 101, (4-(3-chloro-4-(cyclopentylamino)-1H-pyrrolo[2,3-b]pyridin-5-yl)phenyl)(4-morpholinopiperidin-1-yl)methanone] | 95% | 99% | 100% | 92% | 100% |
